The assay deals with T1, human vasopressin V1a receptor subtype (Homo sapiens, UniProt P37288).
T1 construct: host or cells: CHO cells (pZeoSV vector for the Thibonnier line)
Nature of the assay: Vasopressin binding in Chinese Hamster Ovary cell membranes expressing human vasopressin V1a subtype receptors. The following applies: CHO cell membranes, [3H]Manning ligand; for inhibition at 0.1 µM: 100 nM, values without parentheses; for IC50: values in parentheses. Put shortly:
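Displacement of [3H]Manning ligand (8 nM working solution) from human V1a receptors in CHO cell membranes, 25–50 μg protein per well. Incubation ran 60 min at room temperature in 50 mM Tris-HCl pH 7.4 with protease inhibitors, followed by filtration and scintillation counting. Results are given as IC50 or percent inhibition.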

The structures appear in SMILES notation.

T1 sequence (P37288 whole entry): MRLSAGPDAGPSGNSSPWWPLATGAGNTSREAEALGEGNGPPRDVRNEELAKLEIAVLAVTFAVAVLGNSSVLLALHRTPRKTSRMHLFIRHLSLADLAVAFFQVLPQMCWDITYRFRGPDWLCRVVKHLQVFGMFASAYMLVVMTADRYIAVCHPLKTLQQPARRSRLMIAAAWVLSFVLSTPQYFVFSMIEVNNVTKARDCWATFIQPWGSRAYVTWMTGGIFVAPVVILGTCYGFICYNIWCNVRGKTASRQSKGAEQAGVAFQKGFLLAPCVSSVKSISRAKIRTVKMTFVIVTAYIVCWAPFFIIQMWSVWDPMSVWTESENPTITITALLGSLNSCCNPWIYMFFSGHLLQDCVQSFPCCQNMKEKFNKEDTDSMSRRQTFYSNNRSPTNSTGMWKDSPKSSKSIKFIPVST

Regarding `CN(C)CCN(C)C(=O)c1ccc2n1Cc1ccccc1N(C(=O)c1ccc(-c3cccc4ccccc34)cc1Cl)C2` [Example 96, 10-[2-Chloro-4-(1-naphthyl)benzoyl]-N-[2-(dimethylamino)ethyl]-N-methyl-10,11-dihydro-5H-pyrrolo[2,1-c][1,4]benzodiazepine-3-carboxamide], the inhibition (in general, the share of the control response that was lost under treatment) at 0.1 µM came to 10%. On to `Cc1cc(C(=O)N2Cc3ccc(C(=O)N(C)CCCN(C)C)n3Cc3ccccc32)ccc1-c1ccccc1C(F)(F)F` [Example 97, N-[3-(Dimethylamino)propyl]-N-methyl-10-{[2-methyl-2′-(trifluoromethyl)[1,1′-biphenyl]-4-yl]carbonyl}-10,11-dihydro-5H-pyrrolo[2,1-c][1,4]benzodiazepine-3-carboxamide], for which the IC50 (in general, the midpoint of a concentration-inhibition curve) amounted to 1090 nM. Turning to `COc1cc(-c2ccccc2C)c(Cl)cc1C(=O)N1Cc2ccc(C(=O)N(C)CCCN(C)C)n2Cc2ccccc21` [Example 98, 10-[(6-Chloro-3-methoxy-2′-methyl[1,1′-biphenyl]-4-yl)carbonyl]-N-[3-(dimethylamino)propyl]-N-methyl-10,11-dihydro-5H-pyrrolo[2,1-c][1,4]benzodiazepine-3-carboxamide], the half-inhibitory concentration (IC50) stood at 238 nM. Same read-out and setting: the same measure for `COc1cccc(-c2cc(OC)c(C(=O)N3Cc4ccc(C(=O)N(C)CCCN(C)C)n4Cc4ccccc43)cc2Cl)c1` [Example 99, 10-[(6-Chloro-3,3′-dimethoxy[1,1′-biphenyl]-4-yl)carbonyl]-N-[3-(dimethylamino)propyl]-N-methyl-10,11-dihydro-5H-pyrrolo[2,1-c][1,4]benzodiazepine-3-carboxamide]: 311 nM. For the molecule `COc1ccccc1-c1ccc(C(=O)N2Cc3ccc(C(=O)N(C)CCCN(C)C)n3Cc3ccccc32)cc1C` [Example 100, N-[3-(Dimethylamino)propyl]-10-[(2′-methoxy-2-methyl[1,1′-biphenyl]-4-yl)carbonyl]-N-methyl-10,11-dihydro-5H-pyrrolo[2,1-c][1,4]benzodiazepine-3-carboxamide], the inhibition at 0.1 µM was 27%. Same read-out and setting: the same measure for `Cc1ccccc1-c1ccc(C(=O)N2Cc3ccc(C(=O)N(C)CCCN(C)C)n3Cc3ccccc32)cc1C` [Example 101, N-[3-(Dimethylamino)propyl]-10-[(2,2′-dimethyl[1,1′-biphenyl]-4-yl)carbonyl]-N-methyl-10,11-dihydro-5H-pyrrolo[2,1-c][1,4]benzodiazepine-3-carboxamide]: 75%. In the case of `COc1cccc(-c2ccc(C(=O)N3Cc4ccc(C(=O)N(C)CCCN(C)C)n4Cc4ccccc43)cc2C)c1` [Example 102, N-[3-(Dimethylamino)propyl]-10-[(3′-methoxy-2-methyl[1,1′-biphenyl]-4-yl)carbonyl]-N-methyl-10,11-dihydro-5H-pyrrolo[2,1-c][1,4]benzodiazepine-3-carboxamide], the inhibition at 0.1 µM was determined as 45%. For the molecule `COc1ccccc1-c1ccc(C(=O)N2Cc3ccc(C(=O)N(C)CCCN(C)C)n3Cc3ccccc32)cc1` [Example 103, N-[3-(Dimethylamino)propyl]-10-[(2′-methoxy[1,1′-biphenyl]-4-yl)carbonyl]-N-methyl-10,11-dihydro-5H-pyrrolo[2,1-c][1,4]benzodiazepine-3-carboxamide], the inhibition at 0.1 µM came out at 43%. On the same count and under the same terms, the same measure for `Cc1ccccc1-c1ccc(C(=O)N2Cc3ccc(C(=O)N(C)CCCN(C)C)n3Cc3ccccc32)cc1` [Example 104, N-[3-(Dimethylamino)propyl]-N-methyl-10-[(2′-methyl[1,1′-biphenyl]-4-yl)carbonyl]-10,11-dihydro-5H-pyrrolo[2,1-c][1,4]benzodiazepine-3-carboxamide]: 85%; for `COc1cc(C(=O)N2Cc3ccc(C(=O)N(C)CCCN(C)C)n3Cc3ccccc32)ccc1-c1ccccc1C` [Example 105, N-[3-(Dimethylamino)propyl]-10-[(2-methoxy-2′-methyl[1,1′-biphenyl]-4-yl)carbonyl]-N-methyl-10,11-dihydro-5H-pyrrolo[2,1-c][1,4]benzodiazepine-3-carboxamide]: 74%; for `COc1cc(C(=O)N2Cc3ccc(C(=O)N(C)CCCN(C)C)n3Cc3ccccc32)ccc1-c1cccc2ccccc12` [Example 106, N-[3-(Dimethylamino)propyl]-10-[3-methoxy-4-(1-naphthyl)benzoyl]-N-methyl-10,11-dihydro-5H-pyrrolo[2,1-c][1,4]benzodiazepine-3-carboxamide]: 22%.

For the molecule `COc1cc(-c2ccccc2C)c(Cl)cc1C(=O)N1Cc2ccc(C(=O)N3CCC(N4CCCCC4)CC3)n2Cc2ccccc21` [Example 110, {10-[(6-Chloro-3-methoxy-2′-methyl[1,1′-biphenyl]-4-yl)carbonyl]-10,11-dihydro-5H-pyrrolo[2,1-c][1,4]benzodiazepin-3-yl}[4-(1-piperidinyl)-1-piperidinyl]methanone], the IC50 amounted to 661 nM. Still for that read-out and setting: next, `COc1ccccc1-c1ccc(C(=O)N2Cc3ccc(C(=O)N4CCC(N5CCCCC5)CC4)n3Cc3ccccc32)cc1` [Example 111, {10-[(2′-Methoxy[1,1′-biphenyl]-4-yl)carbonyl]-10,11-dihydro-5H-pyrrolo[2,1-c][1,4]benzodiazepin-3-yl}[4-(1-piperidinyl)-1-piperidinyl]methanone]: 459 nM. On the same count and under the same terms, next, `COc1cc(-c2ccccc2C)c(Cl)cc1C(=O)N1Cc2ccc(C(=O)N3CCC(N4CCCC4)CC3)n2Cc2ccccc21` [Example 136, {10-[(6-Chloro-3-methoxy-2′-methyl[1,1′-biphenyl]-4-yl)carbonyl]-10,11-dihydro-5H-pyrrolo[2,1-c][1,4]benzodiazepin-3-yl}[4-(1-pyrrolidinyl)-1-piperidinyl]methanone]: 538 nM. The same measure, in the same setting: next, `COc1ccccc1-c1ccc(C(=O)N2Cc3ccc(C(=O)N4CCN(CCN(C)C)CC4)n3Cc3ccccc32)cc1C` [Example 195, {4-[2-(Dimethylamino)ethyl]-1-piperazinyl}{10-[(2′-methoxy-2-methyl[1,1′-biphenyl]-4-yl)carbonyl]-10,11-dihydro-5H-pyrrolo[2,1-c][1,4]benzodiazepin-3-yl}methanone]: 367 nM; `Cc1cc(C(=O)N2Cc3ccc(C(=O)N4CCN(CCN(C)C)CC4)n3Cc3ccccc32)ccc1-c1ccccc1C(F)(F)F` [Example 196, {4-[2-(Dimethylamino)ethyl]-1-piperazinyl}(10-{[2-methyl-2′-(trifluoromethyl)[1,1′-biphenyl]-4-yl]carbonyl}-10,11-dihydro-5H-pyrrolo[2,1-c][1,4]benzodiazepin-3-yl)methanone]: 1240 nM. With `COc1cc(-c2ccccc2C)c(Cl)cc1C(=O)N1Cc2ccc(C(=O)N3CCN(CCN(C)C)CC3)n2Cc2ccccc21` [Example 197, {10-[(6-Chloro-3-methoxy-2′-methyl[1,1′-biphenyl]-4-yl)carbonyl]-10,11-dihydro-5H-pyrrolo[2,1-c][1,4]benzodiazepin-3-yl}{4-[2-(dimethylamino)ethyl]-1-piperazinyl}methanone], the concentration for half-maximal inhibition (IC50) turned out to be 524 nM. The same measure, in the same setting: next, `COc1ccccc1-c1ccc(C(=O)N2Cc3ccc(C(=O)N4CCN(CCN5CCOCC5)CC4)n3Cc3ccccc32)cc1C` [Example 206, {10-[(2′-Methoxy-2-methyl[1,1′-biphenyl]-4-yl)carbonyl]-10,11-dihydro-5H-pyrrolo[2,1-c][1,4]benzodiazepin-3-yl}{4-[2-(4-morpholinyl)ethyl]-1-piperazinyl}methanone]: 317 nM; `COc1ccccc1-c1ccc(C(=O)N2Cc3ccc(C(=O)N4CCN(CCN5CCOCC5)CC4)n3Cc3ccccc32)cc1` [Example 207, {10-[(2′-Methoxy[1,1′-biphenyl]-4-yl)carbonyl]-10,11-dihydro-5H-pyrrolo[2,1-c][1,4]benzodiazepin-3-yl}{4-[2-(4-morpholinyl)ethyl]-1-piperazinyl}methanone]: 488 nM.

As for `C=CCN1CCN(C(=O)c2ccc3n2Cc2ccccc2N(C(=O)c2cc(Cl)c(-c4ccccc4C)cc2OC)C3)CC1` [Example 219, (4-Allyl-1-piperazinyl){10-[(6-chloro-3-methoxy-2′-methyl[1,1′-biphenyl]-4-yl)carbonyl]-10,11-dihydro-5H-pyrrolo[2,1-c][1,4]benzodiazepin-3-yl}methanone], the concentration for half-maximal inhibition (IC50) is 1810 nM.

For the molecule `C=CCN1CCN(C(=O)c2ccc3n2Cc2ccccc2N(C(=O)c2ccc(-c4ccccc4C)c(C)c2)C3)CC1` [Example 220, (4-Allyl-1-piperazinyl){10-[(2,2′-dimethyl[1,1′-biphenyl]-4-yl)carbonyl]-10,11-dihydro-5H -pyrrolo[2,1-c][1,4]benzodiazepin-3-yl}methanone], the IC50 is 387 nM. On the same count and under the same terms, next, `C=CCN1CCN(C(=O)c2ccc3n2Cc2ccccc2N(C(=O)c2ccc(-c4ccccc4OC)cc2)C3)CC1` [Example 221, (4-Allyl-1-piperazinyl){10-[(2′-methoxy[1,1′-biphenyl]4-yl)carbonyl]-10,11-dihydro-5H -pyrrolo[2,1-c][1,4]benzodiazepin-3-yl}methanone]: 818 nM. Same read-out and setting: next, `COc1ccccc1-c1ccc(C(=O)N2Cc3ccc(C(=O)N4CCN(CCCN(C)C)CC4)n3Cc3ccccc32)cc1C` [Example 245, {4-[3-(Dimethylamino)propyl]-1-piperazinyl}{10-[(2′-methoxy-2-methyl[1,1′-biphenyl]-4-yl)carbonyl]-10,11-dihydro-5H-pyrrolo[2,1-c][1,4]benzodiazepin-3-yl}methanone]: 933 nM; `COc1ccccc1-c1ccc(C(=O)N2Cc3ccc(C(=O)N4CCN(CCCN(C)C)CC4)n3Cc3ccccc32)cc1` [Example 246, {4-[3-(Dimethylamino)propyl]-1-piperazinyl}{10-[(2′-methoxy[1,1′-biphenyl]-4-yl)carbonyl]-10,11-dihydro-5H-pyrrolo[2,1-c][1,4]benzodiazepin-3-yl}methanone]: 373 nM.

(Values after patent US7109193B2, “Tricyclic diazepines tocolytic oxytocin receptor antagonists” (Wyeth, priority 2001, dated 2006).)
